{
  "source": "patent US4221805A",
  "about": "“Method of inducing platelet antiaggregation activity” (priority 1978, dated 1980)",
  "key": {"[1]": {"test": "Acute toxicity in mice, oral administration (LD50)", "format": "in vivo", "conditions": "mouse, in vivo", "protocol": "(§1) A total of 240 albino mice, 120 male and 120 female, of the Swiss strain and having an average weight of about 20 grams were used. The animals were divided into groups of 10 animals each, and kept caged for some days in an environment at a constant temperature (21°±1° C.) and humidity (60±5%). They were then fasted for 24 hours before the experiment, but were given free access to water.\n(§2) The substance indicated by MRAP2 was administered, in a single administration, either orally or endoperitoneally. The LD50 was evaluated for each of the administration methods, using the method of Litchfield and Wilcoxon, J.Pharmacology, 96, 99, […], based on the mortality recorded for each group of mice over the seven days following administration.\n(§3) Six groups of 20 animals, 10 male and 10 female, which had been given MRAP2 dissolved in tap water were used, the method utilised being gastric catheterisation."}, "[2]": {"system": "mice", "test": "Acute toxicity in mice, oral administration (LD50)", "format": "in vivo", "conditions": "20 animals per dose", "protocol": "as §1, §2, §3"}, "[3]": {"system": "cardiovascular system of cats", "test": "Effect on the cardiovascular system of cats", "format": "in vivo", "conditions": "intravenous 5 mg/kg", "protocol": "Three cats weighing 2.4-2.6 kg were used for this test. The MRAP2 was administered intravenously in a dose of 5 mg/kg, carried in a sterile physiological solution. The animals, under combined anaesthesia with ethylurethane and diallylbarbituric acid, were subjected to measurements, by means of the Battaglia-Rangoni polygraph, of the arterial pressure, the cardiac frequency, the nictitation and the electrocardiac activity, before and up to two hours after the administration of the drug."}, "[4]": {"system": "platelet aggregation", "test": "In vivo platelet antiaggregation activity", "parameters": "species or system male rats, Wistar strain", "conditions": "rats", "protocol": "This experiment was carried out on male rats of the Wistar strain having a weight of 320±20 grams. Both the MRAP2 and the aspirin (used as a comparison drug) were dissolved in a physiological solution, and the solutions, adjusted to pH 7.4, were administered orally in doeses of 3 mg/kg to two groups of three rats each. […] The concentration of the solution was adjusted to contain 100 mg of MRAP2 per ml. Blood samples were drawn from each animal 72 and 120 hours after treatment, for checking the platelet aggregation. In calculating the activity, the previous method was used (the average of the three maximum amplitudes of the curves obtained with the untreated rats was given the control figure of 100%)."}, "[5]": {"system": "stomach (gastric lesion)", "test": "Ulcerogenic activity in rats after prolonged administration", "format": "in vivo, male albino rats, Wistar strain", "protocol": "The ulcerogenic activity of MRAP2 was tested both after a single administration of the drug, and after prolonged administration. In these tests, a total of 70 male albino rats of Wistar strain were used, having a weight of 200±20 grams. The MRAP2 was administered diluted in tap water. The points given for gastric ulcerative lesions were as follows: (0) no lesion; (1) hyperaemia or slight capillary obstruction; or slight loss of the epithelium; or some petechiae even with pale mucosa without hyperaemia; (2) diffuse capillary obstructions or numerous petechiae; or diffuse loss of the epithelium; of a few surface lesions; (3) strong submucosa haemorrhage; or many petechiae and small surface lesions; or much anaemic mucosa (yellowish colour); or up to three small ulcers; (4) general pattern as in the previous numbers, plus up to ten small ulcers; or long erosions; or up to three medium sized ulcers; (5) pattern as in number 4, with up to 15 small ulcers; or up to 6 large ulcers; (6) pattern as previously, with up to ten large ulcers, plus small ulcers; (7) pattern as previously, plus up to ten large ulcers and small ulcers; cases of perforated ulcers. 30 Rats were divided into three batches of ten animals each, and subjected daily over a period of six days to the following oral treatment: 1st group: controls 2nd group: MRAP2 (50 mg/kg) 3rd group: MRAP2 (125 mg/kg) Six hours after the last treatment, the animals were killed and the lesion index was evaluated following the techniques and methods previously described."}},
  "data": [
    {"smiles": "Cl.Clc1ccccc1CN1CCCC1", "note": "[MRAP2, N-(2-chlorobenzyl)-pyrrolidine hydrochloride]", "values": [
      {"measurement": "mortality at 168 h", "setting": "[1]; 300 mg/kg", "result": 0, "unit": "%"},
      {"measurement": "mortality at 168 h", "setting": "[1]; 400 mg/kg", "result": 20, "unit": "%"},
      {"measurement": "mortality at 168 h", "setting": "[1]; 500 mg/kg", "result": 45, "unit": "%"},
      {"measurement": "mortality at 168 h", "setting": "[1]; 600 mg/kg", "result": 60, "unit": "%"},
      {"measurement": "mortality at 168 h", "setting": "[1]; 800 mg/kg", "result": 100, "unit": "%"},
      {"measurement": "mortality at 168 h", "setting": "[1]; 1000 mg/kg", "result": 100, "unit": "%"},
      {"measurement": "LD50 at 168 h", "setting": "[1]; single administration, 7 days, 95% limits 515-561", "result": 536, "unit": "mg/kg"},
      {"measurement": "No. of animals dead", "setting": "[2]; 300 mg/kg", "result": 0},
      {"measurement": "No. of animals dead", "setting": "[2]; 400 mg/kg", "result": 4},
      {"measurement": "No. of animals dead", "setting": "[2]; 500 mg/kg", "result": 9},
      {"measurement": "No. of animals dead", "setting": "[2]; 600 mg/kg", "result": 12},
      {"measurement": "No. of animals dead", "setting": "[2]; 800 mg/kg", "result": 20},
      {"measurement": "No. of animals dead", "setting": "[2]; 1000 mg/kg", "result": 20},
      {"measurement": "hypertensive effect", "setting": "[3]; in the four minutes following introduction of the drug", "result": "slight hypertensive effect"},
      {"measurement": "undesirable effects on the cardiovascular system", "setting": "[3]; up to two hours", "result": "does not give rise to any undesirable effects on the cardiovascular system"},
      {"measurement": "antiaggregation activity in vivo (in words)", "setting": "[4]; oral 3 mg/kg, comparison with aspirin", "result": "superior to that of aspirin"},
      {"measurement": "% platelet antiaggregation activity on day 3", "setting": "[4]; single oral dose 3 mg/kg, day 3 (72 hours)", "result": 38, "unit": "%"},
      {"measurement": "% platelet aggregation on day 3", "setting": "[4]; single oral dose 3 mg/kg, day 3 (72 hours), controls = 100", "result": 62, "unit": "%"},
      {"measurement": "% platelet antiaggregation activity on day 5", "setting": "[4]; single oral dose 3 mg/kg, day 5 (120 hours)", "result": 37, "unit": "%"},
      {"measurement": "% platelet aggregation on day 5", "setting": "[4]; single oral dose 3 mg/kg, day 5 (120 hours), controls = 100", "result": 63, "unit": "%"},
      {"measurement": "Average degree of lesion ± E.E.", "setting": "[5]; oral 50 mg/kg daily for six days, scale 0-7, controls 0.57 ± 0.1", "result": "0.86 ± 0.2"},
      {"measurement": "Average degree of lesion ± E.E.", "setting": "[5]; oral 125 mg/kg daily for six days, scale 0-7, controls 0.57 ± 0.1, P <0.05 with regard to controls", "result": "1.07 ± 0.2"},
      {"measurement": "ulcerogenic activity (in words)", "setting": "[5]; oral daily for six days", "result": "significant only at a dose of 125 mg/kg, but even then only slight"}
    ]}
  ]
}
